Measured values published in paper PMC10709440, “High-throughput ligand profile characterization in novel cell lines expressing seven heterologous insect olfactory receptors for the detection of volatile plant biomarkers” (Scientific Reports, 2023).
“And” between values parts separate entries of the source, which are not always exact repeats. Equal entries are not always repeated.

Experiments:
ORCO = molecular target: T1, ORCO (Drosophila melanogaster, UniProt Q9VNB5); assay: Origin of Ca2+ test, (GCaMP6-GSG)ORCO cell line; format: cell-based; conditions: assay buffer lacking Ca2+, and lacking Ca2+ and containing EGTA
T1 sequence (Q9VNB5 1-486): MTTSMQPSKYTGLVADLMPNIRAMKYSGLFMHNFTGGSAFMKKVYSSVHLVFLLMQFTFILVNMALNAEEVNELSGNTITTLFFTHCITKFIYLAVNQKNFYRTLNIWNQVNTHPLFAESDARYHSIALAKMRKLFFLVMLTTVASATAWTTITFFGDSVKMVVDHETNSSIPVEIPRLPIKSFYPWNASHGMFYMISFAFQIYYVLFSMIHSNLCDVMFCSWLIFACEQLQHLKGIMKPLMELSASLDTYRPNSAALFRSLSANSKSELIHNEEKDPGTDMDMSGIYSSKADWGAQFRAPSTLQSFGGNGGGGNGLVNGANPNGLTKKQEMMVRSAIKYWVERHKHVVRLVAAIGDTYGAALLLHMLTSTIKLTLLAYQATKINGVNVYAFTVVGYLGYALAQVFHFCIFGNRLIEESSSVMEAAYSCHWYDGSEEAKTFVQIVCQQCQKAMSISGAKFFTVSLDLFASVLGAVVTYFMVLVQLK
Source text: We tested for the origin of the Ca^2+ ions on two cell lines, OR47a and (GCaMP6-GSG)ORCO, with assay buffer lacking Ca^2+ and assay buffer lacking Ca^2+ and containing EGTA.

[1] = test system: T2, OR cell lines (OR + ORCO); assay: Maximum fluorescence change of the OR cell lines, long term stability testing / VUAA1 check; format: cell-based, Drosophila melanogaster
T2 construct: expressed in transfected cells
Method: (§1) These VUAA1 normalized ∆F values were used to compare the different receptors and ligands.
Twelve thousand to 18,000 cells were plated into each well of a black wall, transparent bottom 384-well microplate (Greiner) 48 h or 72 h before the measurements and were simultaneously treated with 1 μg/mL doxycycline. […] The plate has 24 columns, thus we could record responses in up to eight different cell lines in each plate. On the day of the experiment, the growth medium was replaced with 20 µL assay buffer/well (140 mM NaCl, 5 mM KCl, 2 mM CaCl2, 1 mM MgCl2, 5 mM HEPES-Na, 20 mM glucose, pH 7.3, 340 mOsm). […] Baseline fluorescence (F0) was recorded for 5 s, after which 7 µL VOC buffer (140 mM NaCl, 5 mM KCl, 2 mM CaCl2, 1 mM MgCl2, 5 mM HEPES-Na, 31 mM glucose, 0.1% DMSO, pH 7.3, 340 mOsm) was injected into each well in one row and the fluorescence response was recorded for an additional 30 s, at a rate of one read/sec. VOC solutions (VOC buffer with 4× concentration of the final measured VOC concentration, 9 µL/well was injected) were measured on the same wells in a second round with the same protocol. Each individual concentration of a specific VOC sample was recorded in three wells for the same cell line on the same microplate. […] On each plate, we recorded the response of each cell line to 50 µM VUAA1. […] Each VOC-OR combination was measured three times as technical replicates. […]

Drosophila OR47a = molecular target: T3, Drosophila OR47a (Drosophila melanogaster, UniProt P81921); assay: Calcium ion fluorescence (GCaMP6) assay, OR47a stable HEK293 cell line; format: cell-based; conditions: OR47a cell line; assay buffer lacking Ca2+, and lacking Ca2+ and containing EGTA
T3 construct: expressed in transfected cells
T3 sequence (P81921 1-385): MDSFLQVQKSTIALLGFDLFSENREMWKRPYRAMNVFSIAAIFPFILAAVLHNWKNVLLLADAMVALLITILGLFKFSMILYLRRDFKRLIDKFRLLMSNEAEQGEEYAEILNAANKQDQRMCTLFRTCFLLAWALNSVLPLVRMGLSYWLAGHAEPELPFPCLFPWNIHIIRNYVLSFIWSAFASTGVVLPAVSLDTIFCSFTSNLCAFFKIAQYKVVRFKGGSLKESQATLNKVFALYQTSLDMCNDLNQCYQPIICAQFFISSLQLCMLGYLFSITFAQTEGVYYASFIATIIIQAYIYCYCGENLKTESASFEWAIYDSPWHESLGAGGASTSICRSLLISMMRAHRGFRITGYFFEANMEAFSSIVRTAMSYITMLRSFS
T3 sequence (Q9VNB5 1-486 partner): T1 sequence (Q9VNB5 1-486)
Method: as §1
(§2) The concentration-dependent effect of the reference ligands on their cognate cell lines was examined in more detail. Twelve different ligand concentrations were measured on each cell line in an overall 0.01 μM to 100 μM concentration range with 5 repetitions with three technical replicates each time.
(§3) Twelve thousand to 18,000 cells were plated into each well of a black wall, transparent bottom 384-well microplate (Greiner) 48 h or 72 h before the measurements and were simultaneously treated with 1 μg/mL doxycycline. […] The plate has 24 columns, thus we could record responses in up to eight different cell lines in each plate. On the day of the experiment, the growth medium was replaced with 20 µL assay buffer/well (140 mM NaCl, 5 mM KCl, 2 mM CaCl2, 1 mM MgCl2, 5 mM HEPES-Na, 20 mM glucose, pH 7.3, 340 mOsm). […] Baseline fluorescence (F0) was recorded for 5 s, after which 7 µL VOC buffer (140 mM NaCl, 5 mM KCl, 2 mM CaCl2, 1 mM MgCl2, 5 mM HEPES-Na, 31 mM glucose, 0.1% DMSO, pH 7.3, 340 mOsm) was injected into each well in one row and the fluorescence response was recorded for an additional 30 s, at a rate of one read/sec. VOC solutions (VOC buffer with 4× concentration of the final measured VOC concentration, 9 µL/well was injected) were measured on the same wells in a second round with the same protocol. Each individual concentration of a specific VOC sample was recorded in three wells for the same cell line on the same microplate. The raw data were exported in xls file format, F0 and FMAX values, and the fluorescence intensity changes (∆F) were calculated in Excel (Microsoft) (Supplementary file Data summary.xlsx) using the following equation: ΔF=FMAX-F0/F0 (see also Fig. 1C). On each plate, we recorded the response of each cell line to 50 µM VUAA1. The average of these ∆F values of each cell line were used to calculate the VUAA1-normalized values for the rest of the plate, by dividing VOC response ∆F values by the average VUAA1 response ∆F value of the corresponding OR cell line. Each VOC-OR combination was measured three times as technical replicates. […] The average of these replicates were used as one ∆F and VUAA1-normalized ∆F in the following analysis.
(§4) In the next rows we tested the reference VOCs (or other VOCs known to activate the corresponding cell lines), in order to test if all cell lines are responsive. The remaining rows were used to test VOCs with unknown effect.
(§5) The recorded FMAX, F0, ∆F, VUAA1-normalized ∆F values, as well as the OR name, the name of the tested sample, and the final concentration for each well were copied into supplementary file Data summary.xlsx, that was used to summarize all the plates recorded. Here, the averages of the measurements were calculated for each receptor-VOC-concentration combination.

Drosophila OR10a = molecular target: T4, Drosophila OR10a (Drosophila melanogaster, UniProt Q9VYZ1); assay: Calcium ion fluorescence (GCaMP6) assay, OR10a stable HEK293 cell line; format: cell-based; conditions: 50 µM, OR10a clone G5, single plate 2019.12.05
T4 construct: expressed in transfected cells
T4 sequence (Q9VYZ1 1-406): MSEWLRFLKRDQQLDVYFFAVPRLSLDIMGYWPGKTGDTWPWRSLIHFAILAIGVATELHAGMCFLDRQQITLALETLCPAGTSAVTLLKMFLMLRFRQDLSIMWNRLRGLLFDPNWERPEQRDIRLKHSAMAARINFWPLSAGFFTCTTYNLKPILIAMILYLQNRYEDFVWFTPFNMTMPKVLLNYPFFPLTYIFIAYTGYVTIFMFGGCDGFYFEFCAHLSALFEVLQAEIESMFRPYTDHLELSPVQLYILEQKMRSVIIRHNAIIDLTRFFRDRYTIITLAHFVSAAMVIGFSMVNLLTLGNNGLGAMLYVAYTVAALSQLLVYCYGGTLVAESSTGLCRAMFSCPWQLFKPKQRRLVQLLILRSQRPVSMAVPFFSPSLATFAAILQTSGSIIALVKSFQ
T4 sequence (Q9VNB5 1-486 partner): T1 sequence (Q9VNB5 1-486)
Method: as §1, §2, §3, §4, §5

OR13a = test system: OR13a; design: method as in earlier work; conditions: DoOR database value; ref DoOR; cited from earlier work
Drosophila OR49b = molecular target: T5, Drosophila OR49b (Drosophila melanogaster, UniProt Q9V6H2); assay: cell-based
T5 construct: expressed in transfected cells
T5 sequence (Q9V6H2 1-375): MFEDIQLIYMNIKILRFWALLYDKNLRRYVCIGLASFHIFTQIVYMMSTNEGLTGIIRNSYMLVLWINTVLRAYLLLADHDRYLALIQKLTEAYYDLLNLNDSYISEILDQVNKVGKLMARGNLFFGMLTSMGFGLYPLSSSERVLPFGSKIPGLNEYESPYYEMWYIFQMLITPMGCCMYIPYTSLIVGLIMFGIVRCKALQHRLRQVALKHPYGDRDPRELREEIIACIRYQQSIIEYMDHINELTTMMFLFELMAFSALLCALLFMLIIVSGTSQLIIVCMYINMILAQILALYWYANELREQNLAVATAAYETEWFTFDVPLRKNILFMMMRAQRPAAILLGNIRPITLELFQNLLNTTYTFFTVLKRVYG
T5 sequence (Q9VNB5 1-486 partner): T1 sequence (Q9VNB5 1-486)
Method: as §1, §2, §3, §4, §5

OR49b [2] = test system: OR49b; design: method as in PMID 23329732; conditions: OR49b in Xenopus oocytes; read-out: calculated EC50; cited from earlier work
OR49b [3] = conditions: 80 μM; OR49b transiently in HEK293T cells; cited from earlier work
[4] = OR49b, average of 5 biological replicates
[5] = OR49b, fit of each biological replicate
[6] = OR49b, fit of the averaged curve

## CCc1ccc(NC(=O)CSc2nnc(-c3cccnc3)n2CC)cc1 [VUAA1, reference compound]
ORCO
  response in assay buffer lacking Ca2+: Neither of the cell lines responded
[1]; ORCO agonist VUAA1, highest over OR cell lines
  peaks of fluorescence intensity change: ≤ 462%
[1]; all cell lines, including the four non-responding OR lines
  response of the cell lines to VUAA1: responded
Drosophila OR47a
  response in assay buffer lacking Ca2+: Neither of the cell lines responded
Drosophila OR10a
  DF norm, all technical replicates: 1
  DF norm, outlier technical replicates removed: 1
  DF, outlier technical replicates removed: 1.743
Drosophila OR10a; xc+0.1%DMSO
  DF, all technical replicates: 1.743

## CC(=O)CCC=C(C)C [6-methyl-5-hepten-2-one]
OR13a
  OR13a DoOR response: 0.44

## Cc1ccccc1O [2-methylphenol]
Drosophila OR49b; EC50 (fitted parameter), OR49b, fit of each biological replicate
  EC50: 3.35 µM and 16.1 µM and 14.8 µM and 21 µM and 31.6 µM
Drosophila OR49b; EC50, AVERAGE, OR49b, arithmetic average of 5 replicate EC50
  EC50: 17.4 µM
Drosophila OR49b; EC50, FITTED AVERAGE CURVE, OR49b, fit of the averaged curve
  EC50: 24.4 µM
Drosophila OR49b; EC50, OR49b cell line, fitted Hill equation, Hill coefficient constrained to 1, maximal response max 1
  EC50: 13.9 µM
Drosophila OR49b; LOG EC50 (fitted parameter), OR49b, fit of each biological replicate, log of EC50, unit inferred
  EC50: 3.35 µM and 16.1 µM and 14.8 µM and 21 µM and 31.6 µM
Drosophila OR49b; LOG EC50, AVERAGE, OR49b, average of 5 biological replicates
  EC50: 14 µM
Drosophila OR49b; OR49b, VOC concentration 0.075
  response, AVERAGE: 0
  response, biological replicates: 0
Drosophila OR49b; OR49b, VOC concentration 0.15
  response, AVERAGE: 0
  response, biological replicates: 0
Drosophila OR49b; OR49b, VOC concentration 0.3
  response, AVERAGE: 0.0628
  response, biological replicates: 0 (2×) and 0.1244 and 0.09727 and 0.09231
Drosophila OR49b; OR49b, VOC concentration 0.6
  response, AVERAGE: 0.04614
  response, biological replicates: 0 (3×) and 0.1263 and 0.1043
Drosophila OR49b; OR49b, VOC concentration 1.25
  response, AVERAGE: 0.07731
  response, biological replicates: 0 (2×) and 0.1346 and 0.1269 and 0.1251
Drosophila OR49b; OR49b, VOC concentration 2.5
  response, AVERAGE: 0.06463
  response, biological replicates: 0.1405 and 0 (2×) and 0.06363 and 0.119
Drosophila OR49b; OR49b, VOC concentration 5
  response, AVERAGE: 0.1447
  response, biological replicates: 0.2459 and 0.1808 and 0.1356 and 0.1611 and 0
Drosophila OR49b; OR49b, VOC concentration 10
  response, AVERAGE: 0.2704
  response, biological replicates: 0.4119 and 0.3158 and 0.288 and 0.1952 and 0.1409
Drosophila OR49b; OR49b, VOC concentration 20
  response, AVERAGE: 0.5849
  response, biological replicates: 0.5662 and 0.6184 and 0.7088 and 0.601 and 0.43
Drosophila OR49b; OR49b, VOC concentration 40
  response, AVERAGE: 0.6048
  response, biological replicates: 0.5892 and 0.7837 and 0.6143 and 0.432
Drosophila OR49b; OR49b, VOC concentration 60
  response, AVERAGE: 0.7233
  response, biological replicates: 0.8924 and 0.8145 and 0.74 and 0.4464
Drosophila OR49b; OR49b, VOC concentration 80
  response, AVERAGE: 0.613
  response, biological replicates: 0 and 0.9414 and 0.8681 and 0.8023 and 0.453
Drosophila OR49b; OR49b, VOC concentration 100
  response, AVERAGE: 0.818
  response, biological replicates: 0.8641 and 0.8887 and 0.8515 and 0.6679
Drosophila OR49b; [4]
  AVERAGE MAX: 0.8353
  n, AVERAGE: 1
Drosophila OR49b; [5]
  MAX (fitted parameter): 0.4157 and 1 (3×) and 0.7607
  n (fitted parameter): 1
Drosophila OR49b; [6]
  MAX, fitted average curve: 1
  n, FITTED AVERAGE CURVE: 0.855
OR49b [2]
  EC50: 239 ± 76 µM
OR49b [3]
  response: 38.5%
